From US20260171190A1, “ASSESSMENT OF GR CELLULAR SIGNALING PATHWAY ACTIVITY USING MATHEMATICAL MODELLING OF TARGET GENE EXPRESSION” (priority 2021, published 2026)
Read-outs that look alike come from different tables or passages of the source.

System: GR cellular signaling pathway
Method: Triple Negative Breast cancer cell line (MDA-MB-231) treated for 4, 8, 12 hrs with vehicle, 100 nM dexamethasone, 100 nM dexamethasone and 100 nM mifrepristone (GCR antagonist), or 100 nM dexamethasone and 100 nM CORT108297 (GCR antagonist).
GR pathway activity scores are presented on a normalized 0-100 scale.

SMILES | antagonism of the dexamethasone effect on GR pathway activity (MDA-MB-231, 100 nM dexamethasone and 100 nM antagonist, 4, 8, 12 hrs) | antagonism of the dexamethasone effect on GR pathway activity
CCOC[C@]12Cc3cnn(-c4ccc(F)cc4)c3C=C1CCN(S(=O)(=O)c1ccc(C(F)(F)F)cc1)C2 [CORT108297] | minimally effective | –
CC#C[C@]1(O)CC[C@H]2[C@@H]3CCC4=CC(=O)CCC4=C3[C@@H](c3ccc(N(C)C)cc3)C[C@@]21C [Mifrepristone] | – | strong dexamethasone antagonist
